Results as given in US8889671B2, “Compounds and methods for treating bacterial infections” (AstraZeneca AB, priority 2013, dated 2014).
Converted amounts (≈) assume the structure as drawn. Read-outs that look alike come from different tables or passages of the source.

What was measured:
Staphylococcus aureus = assay: Susceptibility testing (MIC) Assay 1, broth microdilution; type: cell-based
Streptococcus pneumoniae = assay: as above; type: cell-based
Streptococcus pyogenes = assay: as above; type: cell-based; conditions: Streptococcus pyrgenes, in vivo strain, read-out: Spy MIC
Escherichia coli = assay: Susceptibility testing (MIC) Assay 2, broth microdilution; type: cell-based; conditions: K12, read-out: Eco MIC
Haemophilus influenzae = assay: as above; type: cell-based; conditions: ATCC 51907, in vivo strain, read-out: Hin MIC
Klebsiella pneumoniae = assay: as above; type: cell-based; conditions: clinical isolate, mucoid, read-out: Kpn MIC
Pseudomonas aeruginosa = assay: as above; type: cell-based; conditions: for MIC: PAO1, read-out: Pae MIC
[1] = biological target: Escherichia coli DNA gyrase A/B tetramer (Escherichia coli (strain K12), UniProt P0AES4+P0AES6); assay: DNA gyrase supercoiling activity fluorescence polarisation assay; type: biochemical; conditions: 0.3 mM ATP
Method in brief: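 IC50 derived by nonlinear regression from BODIPY-FL fluorescence anisotropy, read 60 min after quenching with labelled triplex-forming probe (pH 3.5). Reaction: 5 nM gyrase tetramer, 130 micrograms/mL relaxed plasmid, 0.3 mM ATP, 4 mM MgCl2, pH 7.5, typically 30 min at ambient temperature, 5-10 compound concentrations.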

[2] = Staphylococcus aureus, Staphylococcus aureus in vivo strain, MSQS, read-out: Sau(d) MIC
[3] = Staphylococcus aureus, in vivo strain, MRQR, read-out: Sau(e) MIC
[4] = Staphylococcus aureus, serum, read-out: Sau(f) MIC
[5] = in vivo strain (footnote b), read-out: Spn(b) MIC
[6] = in vivo strain (footnote c), read-out: Spn(c) MIC
[7] = ATCC51907, Haemophilus influenzae
[8] = Eco Gyr FP Mean IC50, E. coli DNA gyrase supercoiling

SMILES	MIC (Staphylococcus aureus; [2])	MIC (Staphylococcus aureus; [3])	MIC (Staphylococcus aureus; [4])	MIC (Streptococcus pneumoniae; [5])	MIC (Streptococcus pneumoniae; [6])	MIC (Streptococcus pyogenes; Streptococcus pyogenes)	MIC (Escherichia coli)	MIC (Haemophilus influenzae; [7])	MIC (Klebsiella pneumoniae)	MIC (Pseudomonas aeruginosa)	IC50 [1, 8]	MIC (Staphylococcus aureus; Staphylococcus aureus in vivo strain, MSQS, read-out: Sau(d) MIC)	MIC (Streptococcus pyogenes)	MIC (Haemophilus influenzae)	Pae MIC (Pseudomonas aeruginosa; PAO1)	IC50 ([1]; E. coli DNA gyrase supercoiling, read-out: Eco Gyr FP Mean IC50)
C[C@@H]1CN2c3c(cc4c(N5C[C@H](CN=[N+]=[N-])OC5=O)noc4c3F)CC3(C(=O)NC(=O)NC3=O)[C@H]2[C@H](C)O1 [Example 44, (2R,4S,4aS)-8-[(5R)-5-(Azidomethyl)-2-oxo-1,3-oxazolidin-3-yl]-11-fluoro-2,4-dimethyl-1,2,4,4a-tetrahydro-2′H,6H-spiro[1,4-oxazino[4,3-a][1,2]oxazolo[4,5-g]quinoline-5,5′-pyrimidine]-2′,4′,6′(1′H,3′H)-trione]	0.78 µM (≈ 0.412 µg/mL)	3.1 µM (≈ 1.64 µg/mL)	3.1 µM (≈ 1.64 µg/mL)	0.78 µM (≈ 0.412 µg/mL)	1.6 µM (≈ 0.846 µg/mL)	0.78 µM (≈ 0.412 µg/mL)	50 µM (≈ 26.4 µg/mL)	0.78 µM (≈ 0.412 µg/mL)	> 200 µM	> 200 µM	530 nM					
CSC[C@H]1COC(=O)N1c1noc2c(F)c3c(cc12)CC1(C(=O)NC(=O)NC1=O)[C@H]1[C@H](C)O[C@H](C)CN31 [Example 45]	< 0.2 µM	0.39 µM (≈ 0.208 µg/mL)	0.78 µM (≈ 0.416 µg/mL)	0.39 µM (≈ 0.208 µg/mL)	0.55 µM (≈ 0.293 µg/mL)	0.39 µM (≈ 0.208 µg/mL)	25 µM (≈ 13.3 µg/mL)	0.39 µM (≈ 0.208 µg/mL)	200 µM (≈ 107 µg/mL)	> 200 µM	260 nM					
C[C@@H]1CN2c3c(cc4c(N5C(=O)OC[C@@H]5CS(C)(=O)=O)noc4c3F)CC3(C(=O)NC(=O)NC3=O)[C@H]2[C@H](C)O1 [Example 46]	1.6 µM (≈ 0.905 µg/mL)	6.2 µM (≈ 3.51 µg/mL)	1.6 µM (≈ 0.905 µg/mL)	0.78 µM (≈ 0.441 µg/mL)	1.6 µM (≈ 0.905 µg/mL)	0.39 µM (≈ 0.221 µg/mL)	100 µM (≈ 56.6 µg/mL)	0.78 µM (≈ 0.441 µg/mL)	> 200 µM	> 200 µM	170 nM					
C[C@@H]1CN2c3c(cc4c(N5C(=O)OC[C@H]5CN=[N+]=[N-])noc4c3F)CC3(C(=O)NC(=O)NC3=O)[C@H]2[C@H](C)O1 [Example 47, (2R,4S,4aS)-8-((R)-4-(Azidomethyl)-2-oxooxazolidin-3-yl)-11-fluoro-2,4-dimethyl-2,4,4a,6-tetrahydro-1H,1′H-spiro[isoxazolo[4,5-g][1,4]oxazino[4,3-a]quinoline-5,5′-pyrimidine]-2′,4′,6′(3′H)-trione]	< 0.2 µM	0.78 µM (≈ 0.412 µg/mL)	0.78 µM (≈ 0.412 µg/mL)	0.39 µM (≈ 0.206 µg/mL)	0.55 µM (≈ 0.291 µg/mL)	0.279 µM (≈ 0.147 µg/mL)	25 µM (≈ 13.2 µg/mL)	0.78 µM (≈ 0.412 µg/mL)	200 µM (≈ 106 µg/mL)	> 200 µM	150 nM					
C[C@@H]1CN2c3c(cc4c(N5C(=O)OC[C@@H]5CN=[N+]=[N-])noc4c3F)CC3(C(=O)NC(=O)NC3=O)[C@H]2[C@H](C)O1 [Example 48]		12 µM (≈ 6.34 µg/mL)	50 µM (≈ 26.4 µg/mL)	12 µM (≈ 6.34 µg/mL)	12 µM (≈ 6.34 µg/mL)		200 µM (≈ 106 µg/mL)		>200 µM			6.2 µM (≈ 3.28 µg/mL)	6.2 µM (≈ 3.28 µg/mL)	6.2 µM (≈ 3.28 µg/mL)	>200 µM	> 2100 nM
CCOC[C@H]1COC(=O)N1c1noc2c(F)c3c(cc12)CC1(C(=O)NC(=O)NC1=O)[C@H]1[C@H](C)O[C@H](C)CN31 [Example 49, (2R,4S,4aS)-8-[(4S)-4-(Ethoxymethyl)-2-oxo-1,3-oxazolidin-3-yl]-11-fluoro-2,4-dimethyl-1,2,4,4a-tetrahydro-2′H,6H-spiro[1,4-oxazino[4,3-a][1,2]oxazolo[4,5-g]quinoline-5,5′-pyrimidine]-2′,4′,6′(1′H,3′H)-trione]	0.39 µM (≈ 0.207 µg/mL)	0.78 µM (≈ 0.415 µg/mL)	0.78 µM (≈ 0.415 µg/mL)	0.78 µM (≈ 0.415 µg/mL)	1.6 µM (≈ 0.85 µg/mL)	0.78 µM (≈ 0.415 µg/mL)	50 µM (≈ 26.6 µg/mL)	1.6 µM (≈ 0.85 µg/mL)	> 200 µM	> 200 µM	380 nM					
COCCOC[C@H]1COC(=O)N1c1noc2c(F)c3c(cc12)CC1(C(=O)NC(=O)NC1=O)[C@H]1[C@H](C)O[C@H](C)CN31 [Example 50, (2R,4S,4aS)-11-Fluoro-8-{(4S)-4-[(2-methoxyethoxy)methyl]-2-oxo-1,3-oxazolidin-3-yl}-2,4-dimethyl-1,2,4,4a-tetrahydro-2′H,6H-spiro[1,4-oxazino[4,3-a][1,2]oxazolo[4,5-g]quinoline-5,5′-pyrimidine]-2′,4′,6′(1′H,3′H)-trione]	1.6 µM (≈ 0.898 µg/mL)	3.1 µM (≈ 1.74 µg/mL)	1.6 µM (≈ 0.898 µg/mL)	1.6 µM (≈ 0.898 µg/mL)	1.6 µM (≈ 0.898 µg/mL)	1.6 µM (≈ 0.898 µg/mL)	200 µM (≈ 112 µg/mL)	3.1 µM (≈ 1.74 µg/mL)	> 200 µM	> 200 µM	200 nM					
C[C@@H]1CN2c3c(cc4c(N5C(=O)OC[C@@H]5C(F)F)noc4c3F)CC3(C(=O)NC(=O)NC3=O)[C@H]2[C@H](C)O1 [Example 51]	0.28 µM (≈ 0.147 µg/mL)	0.55 µM (≈ 0.288 µg/mL)	0.78 µM (≈ 0.408 µg/mL)	0.78 µM (≈ 0.408 µg/mL)	0.78 µM (≈ 0.408 µg/mL)	0.55 µM (≈ 0.288 µg/mL)	12 µM (≈ 6.28 µg/mL)	0.39 µM (≈ 0.204 µg/mL)	100 µM (≈ 52.3 µg/mL)	> 200 µM	430 nM					
C[C@@H]1CN2c3c(cc4c(N5C(=O)OC[C@@H]5C5CC5)noc4c3F)CC3(C(=O)NC(=O)NC3=O)[C@H]2[C@H](C)O1 [Example 52]	0.78 µM (≈ 0.401 µg/mL)	1.6 µM (≈ 0.822 µg/mL)	3.1 µM (≈ 1.59 µg/mL)	1.6 µM (≈ 0.822 µg/mL)	1.6 µM (≈ 0.822 µg/mL)	0.78 µM (≈ 0.401 µg/mL)	25 µM (≈ 12.8 µg/mL)	0.78 µM (≈ 0.401 µg/mL)	200 µM (≈ 103 µg/mL)	> 200 µM	900 nM					
C[C@@H]1CN2c3c(cc4c(N5C[C@H](c6ccccn6)OC5=O)noc4c3F)CC3(C(=O)NC(=O)NC3=O)[C@H]2[C@H](C)O1 [Example 53, (2R,4S,4aS)-11-Fluoro-2,4-dimethyl-8-((R)-2-oxo-5-(pyridin-2-yl)oxazolidin-3-yl)-2,4,4a,6-tetrahydro-1H,1′H-spiro[isoxazolo[4,5-g][1,4]oxazino[4,3-a]quinoline-5,5′-pyrimidine]-2′,4′,6′(3′H)-trione]	0.098 µM (≈ 0.0539 µg/mL)	0.39 µM (≈ 0.215 µg/mL)	0.55 µM (≈ 0.303 µg/mL)	0.39 µM (≈ 0.215 µg/mL)	0.55 µM (≈ 0.303 µg/mL)	0.464 µM (≈ 0.255 µg/mL)	35 µM (≈ 19.3 µg/mL)	1.1 µM (≈ 0.606 µg/mL)	> 200 µM	> 200 µM	380 nM					
C[C@@H]1CN2c3c(cc4c(N5C[C@@H](c6ccccn6)OC5=O)noc4c3F)CC3(C(=O)NC(=O)NC3=O)[C@H]2[C@H](C)O1 [Example 54, (2R,4S,4aS)-11-fluoro-2,4-dimethyl-8-((S)-2-oxo-5-(pyridin-2-yl)oxazolidin-3-yl)-2,4,4a,6-tetrahydro-1H,1′H-spiro[isoxazolo[4,5-g][1,4]oxazino[4,3-a]quinoline-5,5′-pyrimidine]-2′,4′,6′(3′H)-trione]	0.39 µM (≈ 0.215 µg/mL)	0.78 µM (≈ 0.429 µg/mL)	1.6 µM (≈ 0.881 µg/mL)	0.78 µM (≈ 0.429 µg/mL)	0.78 µM (≈ 0.429 µg/mL)	0.78 µM (≈ 0.429 µg/mL)	100 µM (≈ 55.1 µg/mL)	3.1 µM (≈ 1.71 µg/mL)	> 200 µM	> 200 µM	940 nM					
C[C@@H]1CN2c3c(cc4c(N5C(=O)OC[C@H]5c5ccccn5)noc4c3F)CC3(C(=O)NC(=O)NC3=O)[C@H]2[C@H](C)O1 [Example 55, (2R,4S,4aS)-11-Fluoro-2,4-dimethyl-8-((R)-2-oxo-4-(pyridin-2-yl)oxazolidin-3-yl)-2,4,4a,6-tetrahydro-1H,1′H-spiro[isoxazolo[4,5-g][1,4]oxazino[4,3-a]quinoline-5,5′-pyrimidine]-2′,4′,6′(3′H)-trione]	0.78 µM (≈ 0.429 µg/mL)	1.6 µM (≈ 0.881 µg/mL)	1.6 µM (≈ 0.881 µg/mL)	0.78 µM (≈ 0.429 µg/mL)	0.78 µM (≈ 0.429 µg/mL)	0.78 µM (≈ 0.429 µg/mL)	50 µM (≈ 27.5 µg/mL)	0.39 µM (≈ 0.215 µg/mL)	> 200 µM	> 200 µM	150 nM					
C[C@@H]1CN2c3c(cc4c(N5C(=O)OC[C@@H]5c5ccccn5)noc4c3F)CC3(C(=O)NC(=O)NC3=O)[C@H]2[C@H](C)O1 [Example 56, (2R,4S,4aS)-11-fluoro-2,4-dimethyl-8-((S)-2-oxo-4-(pyridin-2-yl)oxazolidin-3-yl)-2,4,4a,6-tetrahydro-1H,1′H-spiro[isoxazolo[4,5-g][1,4]oxazino[4,3-a]quinoline-5,5′-pyrimidine]-2′,4′,6′(3′H)-trione]	3.1 µM (≈ 1.71 µg/mL)	6.2 µM (≈ 3.41 µg/mL)	25 µM (≈ 13.8 µg/mL)	6.2 µM (≈ 3.41 µg/mL)	6.2 µM (≈ 3.41 µg/mL)	3.1 µM (≈ 1.71 µg/mL)	> 200 µM	3.1 µM (≈ 1.71 µg/mL)	> 200 µM	> 200 µM	1900 nM					
C[C@@H]1CN2c3c(cc4c(N5C(=O)OC[C@H]5c5ccncc5)noc4c3F)CC3(C(=O)NC(=O)NC3=O)[C@H]2[C@H](C)O1 [Example 57, (2R,4S,4aS)-11-Fluoro-2,4-dimethyl-8-((R)-2-oxo-4-(pyridin-4-yl)oxazolidin-3-yl)-2,4,4a,6-tetrahydro-1H,1′H-spiro[isoxazolo[4,5-g][1,4]oxazino[4,3-a]quinoline-5,5′-pyrimidine]-2′,4′,6′(3′H)-trione]	1.6 µM (≈ 0.881 µg/mL)	6.2 µM (≈ 3.41 µg/mL)	3.1 µM (≈ 1.71 µg/mL)	0.78 µM (≈ 0.429 µg/mL)	1.6 µM (≈ 0.881 µg/mL)	0.78 µM (≈ 0.429 µg/mL)	100 µM (≈ 55.1 µg/mL)	0.39 µM (≈ 0.215 µg/mL)	> 200 µM	> 200 µM	760 nM					
